Legend:
Format in all cases: cell-based
human TLR7 = target: T1, human TLR7 (Homo sapiens, UniProt Q9NYK1); test: TLR7 inhibition reporter assay (HEK-Blue SEAP); details: HEK-Blue cells overexpressing human TLR7, stimulated with gardiquimod 7.5 µM, 22 h incubation
T1 construct: host or cells: HEK-Blue cells
T1 sequence (Q9NYK1 27-1049): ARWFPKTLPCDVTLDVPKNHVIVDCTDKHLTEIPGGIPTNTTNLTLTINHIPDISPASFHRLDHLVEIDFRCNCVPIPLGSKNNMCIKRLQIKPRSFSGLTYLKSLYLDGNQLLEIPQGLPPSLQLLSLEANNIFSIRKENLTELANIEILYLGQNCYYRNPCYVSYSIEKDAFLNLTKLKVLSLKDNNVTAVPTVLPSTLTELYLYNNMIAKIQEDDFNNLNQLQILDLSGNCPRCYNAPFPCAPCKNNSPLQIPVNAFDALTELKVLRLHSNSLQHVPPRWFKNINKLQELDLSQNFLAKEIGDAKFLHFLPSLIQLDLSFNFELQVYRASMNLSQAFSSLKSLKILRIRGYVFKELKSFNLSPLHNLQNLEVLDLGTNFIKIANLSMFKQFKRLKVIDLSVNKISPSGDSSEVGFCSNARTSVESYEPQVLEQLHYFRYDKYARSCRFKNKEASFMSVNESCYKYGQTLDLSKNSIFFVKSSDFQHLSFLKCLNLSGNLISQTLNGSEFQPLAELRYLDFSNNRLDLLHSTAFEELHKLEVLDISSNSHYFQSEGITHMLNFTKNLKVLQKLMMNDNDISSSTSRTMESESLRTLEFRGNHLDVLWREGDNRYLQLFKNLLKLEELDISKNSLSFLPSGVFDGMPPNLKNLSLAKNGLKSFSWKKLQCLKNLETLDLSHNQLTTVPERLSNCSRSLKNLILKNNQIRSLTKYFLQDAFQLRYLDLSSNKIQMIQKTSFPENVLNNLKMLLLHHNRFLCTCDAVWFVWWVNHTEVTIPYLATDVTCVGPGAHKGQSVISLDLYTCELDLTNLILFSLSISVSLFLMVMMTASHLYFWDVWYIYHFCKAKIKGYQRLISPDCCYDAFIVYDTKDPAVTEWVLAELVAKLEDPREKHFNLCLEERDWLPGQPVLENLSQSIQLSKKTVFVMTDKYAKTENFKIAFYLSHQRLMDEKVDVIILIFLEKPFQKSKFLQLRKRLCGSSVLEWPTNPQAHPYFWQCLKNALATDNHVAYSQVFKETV
Description: (§1) HEK-Blue™-cells (Invivogen) overexpressing human TLR7, TLR8 or TLR9 receptors were used for screening inhibitors of these receptors using an inducible SEAP (secreted embryonic alkaline phosphatase) reporter gene under the control of the IFN-β minimal promoter fused to five NF-κB and AP-1-binding sites. Briefly, cells are seeded into Greiner 384 well plates (15000 cells per well for TLR7, 20,000 for TLR8 and 25,000 for TLR9) and then treated with test compounds in DMSO to yield a final dose response concentration range of 0.05 nM - 50 µM. After a 30 minute compound pre-treatment at room temperature, the cells are then stimulated with a TLR7 ligand (gardiquimod at a final concentration of 7.5 µM), TLR8 ligand (R848 at a final concentration of 15.9 µM) or TLR9 ligand (ODN2006 at a final concentration of 5 nM) to activate NF-κB and AP-1 which induce the production of SEAP. After a 22 h incubation at 37°C, 5% CO2, SEAP levels are determined with the addition of HEK-Blue™ Detection reagent (Invivogen), a cell culture medium that allows for detection of SEAP, according to manufacturer's specifications. The percent inhibition is determined as the % reduction in the HEK-Blue signal present in wells treated with agonist plus DMSO alone compared to wells treated with a known inhibitor.

human TLR9 = target: T2, human TLR9 (Homo sapiens, UniProt Q9NR96); test: TLR9 inhibition reporter assay (HEK-Blue SEAP); details: HEK-Blue cells overexpressing human TLR9, stimulated with ODN2006 5 nM, 22 h incubation
T2 construct: host or cells: HEK-Blue cells
T2 sequence (Q9NR96 26-1032): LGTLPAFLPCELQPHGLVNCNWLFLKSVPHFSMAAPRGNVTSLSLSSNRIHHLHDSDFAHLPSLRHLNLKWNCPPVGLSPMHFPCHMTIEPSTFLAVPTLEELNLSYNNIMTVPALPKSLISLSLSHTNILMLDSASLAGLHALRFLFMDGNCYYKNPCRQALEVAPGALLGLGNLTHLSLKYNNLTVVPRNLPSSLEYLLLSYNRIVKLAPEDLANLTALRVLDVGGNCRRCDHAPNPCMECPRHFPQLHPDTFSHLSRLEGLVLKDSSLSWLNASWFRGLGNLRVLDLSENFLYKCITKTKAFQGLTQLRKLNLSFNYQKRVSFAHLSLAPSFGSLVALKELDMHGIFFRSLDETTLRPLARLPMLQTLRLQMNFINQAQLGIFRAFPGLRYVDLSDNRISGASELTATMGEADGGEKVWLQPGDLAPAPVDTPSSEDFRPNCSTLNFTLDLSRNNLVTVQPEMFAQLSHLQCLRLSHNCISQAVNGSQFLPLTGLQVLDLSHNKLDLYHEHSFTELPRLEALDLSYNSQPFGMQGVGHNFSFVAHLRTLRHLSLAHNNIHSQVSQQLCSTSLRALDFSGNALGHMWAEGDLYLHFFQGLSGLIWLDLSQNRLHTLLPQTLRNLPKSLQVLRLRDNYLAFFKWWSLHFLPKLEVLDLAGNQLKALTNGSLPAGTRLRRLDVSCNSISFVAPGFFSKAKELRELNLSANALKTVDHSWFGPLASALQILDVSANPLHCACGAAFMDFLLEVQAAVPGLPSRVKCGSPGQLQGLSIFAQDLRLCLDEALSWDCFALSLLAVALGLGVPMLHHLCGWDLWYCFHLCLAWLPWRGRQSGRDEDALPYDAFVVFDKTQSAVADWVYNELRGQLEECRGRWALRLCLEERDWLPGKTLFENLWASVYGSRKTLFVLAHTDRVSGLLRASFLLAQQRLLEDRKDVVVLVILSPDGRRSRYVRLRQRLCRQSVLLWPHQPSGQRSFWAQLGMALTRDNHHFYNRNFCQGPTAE
Description: as §1

human TLR8 = target: T3, human TLR8 (Homo sapiens, UniProt Q9NR97); test: TLR8 inhibition reporter assay (HEK-Blue SEAP); details: HEK-Blue cells overexpressing human TLR8, stimulated with R848 15.9 µM, 22 h incubation
T3 construct: host or cells: HEK-Blue cells
T3 sequence (Q9NR97 27-1041): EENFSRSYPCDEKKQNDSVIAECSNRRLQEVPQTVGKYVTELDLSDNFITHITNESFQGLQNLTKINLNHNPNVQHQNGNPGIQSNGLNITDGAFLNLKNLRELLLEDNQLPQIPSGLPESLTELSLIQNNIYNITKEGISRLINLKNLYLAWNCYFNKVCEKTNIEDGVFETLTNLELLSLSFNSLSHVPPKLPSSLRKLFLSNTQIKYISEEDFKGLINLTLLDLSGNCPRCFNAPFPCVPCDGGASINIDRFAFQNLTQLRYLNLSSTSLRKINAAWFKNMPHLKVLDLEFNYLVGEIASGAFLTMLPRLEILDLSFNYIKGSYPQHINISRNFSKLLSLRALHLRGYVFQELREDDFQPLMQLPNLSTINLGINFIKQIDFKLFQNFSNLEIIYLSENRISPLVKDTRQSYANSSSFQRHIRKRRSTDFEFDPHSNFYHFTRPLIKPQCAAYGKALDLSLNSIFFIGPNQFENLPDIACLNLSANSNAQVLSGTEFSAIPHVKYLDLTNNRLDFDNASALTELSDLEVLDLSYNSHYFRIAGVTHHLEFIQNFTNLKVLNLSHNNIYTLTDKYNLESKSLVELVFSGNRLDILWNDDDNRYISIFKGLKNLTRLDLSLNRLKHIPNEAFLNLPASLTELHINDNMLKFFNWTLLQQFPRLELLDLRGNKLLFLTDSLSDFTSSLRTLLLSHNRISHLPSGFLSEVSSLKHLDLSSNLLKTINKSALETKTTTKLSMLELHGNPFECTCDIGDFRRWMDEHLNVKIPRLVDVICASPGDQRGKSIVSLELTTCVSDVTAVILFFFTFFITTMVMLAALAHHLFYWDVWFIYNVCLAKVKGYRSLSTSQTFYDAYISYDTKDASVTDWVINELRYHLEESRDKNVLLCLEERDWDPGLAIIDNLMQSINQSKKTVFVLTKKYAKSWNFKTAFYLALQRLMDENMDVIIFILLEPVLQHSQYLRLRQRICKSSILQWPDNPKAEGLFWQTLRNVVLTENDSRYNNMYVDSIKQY
Description: as §1

| Structure (SMILES) | IC50 (human TLR7) [nM] | IC50 (human TLR9) [nM] | IC50 (human TLR8) [nM] |
| --- | --- | --- | --- |
| COc1cc(-c2cc3[nH]c4ccc(C5CN(CC(C)(C)O)C5)cc4c3c(C)c2C)cn2ncnc12 [Example 38] | 2.5 | 514 | 0.4 |
| COc1cc(-c2cc3[nH]c4ccc(C5CCCN(C6CCOCC6)C5)cc4c3c(C)c2C)cn2ncnc12 (centres unmarked) [Example 28, 2-(8-methoxy-[1,2,4]triazolo[1,5-a]pyridin-6-yl)-3,4-dimethyl-6-(1-(tetrahydro-2H-pyran-4-yl)piperidin-3-yl)-9H-carbazole] | 7.8 | 523 | 0.7 |
| COc1cc(-c2cc(C)c3c(c2)[nH]c2ccc(C4CCN(CC(C)(C)O)CC4)cc23)cn2ncnc12 [Example 20] | 1.9 | 224 | 2.1 |
| Cc1cc(-c2cc(C)c3ncnn3c2)cc2[nH]c3ccc(C4CCN(CC(C)(C)O)CC4)cc3c12 [Example 19] | 1.8 | 416 | 4 |
| COc1cc(-c2cc3[nH]c4ccc(C5CCCN(CC#N)C5)cc4c3c(C)c2C)cn2ncnc12 (centres unmarked) [Example 34] | 1.3 | 321 | 2.5 |
| COc1cc(-c2cc3[nH]c4ccc(C5CN(C6CCOCC6)C5)cc4c3c(C)c2C)cn2ncnc12 [Example 37] | – | 1050 | 1.3 |
| Cc1cc2c(cc1-c1cn(C)c(=O)c(C)c1C)[nH]c1ccc(C3CCN(CC(C)(C)O)CC3)cc12 [Example 24] | 68 | 388 | 1.5 |
| COc1cc(-c2cc3[nH]c4ccc(C5CN(CCS(C)(=O)=O)C5)cc4c3c(C)c2C)cn2ncnc12 [Example 30, 2-(8-methoxy-[1,2,4]triazolo[1,5-a]pyridin-6-yl)-3,4-dimethyl-6-(1-(2-(methylsulfonyl)ethyl)azetidin-3-yl)-9H-carbazole] | 5.5 | 813 | 1 |
| COc1cc(-c2cc3[nH]c4ccc(C5CCCN(C6COC6)C5)cc4c3c(C)c2C)cn2ncnc12 (centres unmarked) [Example 33] | 15.5 | 1230 | 2.2 |
| c1cncc(-c2ccc3c(c2)[nH]c2ccc(C4CCNCC4)cc23)c1 [Example 4, 6-(piperidin-4-yl)-2-(pyridin-3-yl)-9H-carbazole] | 1470 | 541 | 1800 |
| COc1cc(-c2cc3[nH]c4ccc(C5CN(C(=O)CN(C)C)C5)cc4c3c(C)c2C)cn2ncnc12 [Example 35] | 4.5 | 845 | 3.3 |
| c1cc(-c2ccc3c(c2)[nH]c2ccc(C4CCNCC4)cc23)ccn1 [Example 9, 6-(Piperidin-4-yl)-2-(pyridin-4-yl)-9H-carbazole] | 383 | 302 | 61 |
| COc1cc(-c2cc3[nH]c4ccc(C5CN(C6COC6)C5)cc4c3c(C)c2C)cn2ncnc12 [Example 36] | 5.6 | 861 | 1.8 |
| Cc1cc(-c2ccc3c(c2)[nH]c2ccc(C4CCNCC4)cc23)cc(C)n1 [Example 2, 2-(2,6-Dimethylpyridin-4-yl)-6-(piperidin-4-yl)-9H-carbazole] | 22 | 53 | 103 |
| Cc1cc(-c2cc(C)c3ncnn3c2)cc2[nH]c3ccc(C4CCNCC4)cc3c12 [Example 13] | 0.7 | 349 | 6.8 |
| Cc1c(-c2ccc3c(c2)[nH]c2ccc(C4CCNCC4)cc23)cn(C)c(=O)c1C [Example 5, 1,3,4-trimethyl-5-(6-(piperidin-4-yl)-9H-carbazol-2-yl)pyridin-2(1H)-one] | 16 | 182 | 29 |
| Cc1c(-c2cc(C)c3c(c2)[nH]c2ccc(C4CCNCC4)cc23)cn(C)c(=O)c1C [Example 10, 1,3,4-trimethyl-5-(4-methyl-6-(piperidin-4-yl)-9H-carbazol-2-yl)pyridin-2(1H)-one] | 2.2 | 350 | 2.4 |
| COc1cc(-c2cc3[nH]c4ccc(C5CN(CC#N)C5)cc4c3c(C)c2C)cn2ncnc12 [Example 39] | 11 | 1240 | 4 |
| COc1cc(-c2cc3[nH]c4ccc(C5CNC5)cc4c3c(C)c2C)cn2ncnc12 [Example 29, 6-(azetidin-3-yl)-2-(8-methoxy-[1,2,4]triazolo[1,5-a]pyridin-6-yl)-3,4-dimethyl-9H-carbazole] | 3.1 | 228 | 1 |

— patent EP4038059B1, “SUBSTITUTED CARBAZOLE COMPOUNDS” (Bristol-Myers Squibb Company, priority 2019, dated 2021)
